# Data as given in PubChem BioAssay (NCI).
#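 Growth conditions: 96-well plates. Treatment: test compound, 48 hours, 5 concentrations. Analysis: linear interpolation between bracketing concentrations; unreached endpoints set to highest concentration. At the GI50, growth is halved. TGI: total growth inhibition.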
# Columns and labels:
# Assay in all cases: growth of human tumour cells (NCI), 48 h
# 786-0 renal = test system: 786-0 renal
# A498 renal = test system: A498 renal
# A549 NSCLC = test system: A549 NSCLC
# BT-549 breast = test system: BT-549 breast
# CAKI-1 renal = test system: CAKI-1 renal
# CCRF-CEM leukemia = test system: CCRF-CEM leukemia
# COLO 205 colon = test system: COLO 205 colon
# DU-145 prostate = test system: DU-145 prostate
# EKVX NSCLC = test system: EKVX NSCLC
# HCC-2998 colon = test system: HCC-2998 colon
# HCT-116 colon = test system: HCT-116 colon
# HCT-15 colon = test system: HCT-15 colon
# HL-60(TB) leukemia = test system: HL-60(TB) leukemia
# HOP-62 NSCLC = test system: HOP-62 NSCLC
# HOP-92 NSCLC = test system: HOP-92 NSCLC
# HS 578T breast = test system: HS 578T breast
# HT29 colon = test system: HT29 colon
# IGROV1 ovarian = test system: IGROV1 ovarian
# K-562 leukemia = test system: K-562 leukemia
# KM12 colon = test system: KM12 colon
# LOX IMVI melanoma = test system: LOX IMVI melanoma
# M14 melanoma = test system: M14 melanoma
# MALME-3M melanoma = test system: MALME-3M melanoma
# MCF7 breast = test system: MCF7 breast
# MDA-MB-231 breast = test system: MDA-MB-231 breast
# MDA-MB-435 = test system: MDA-MB-435
# MOLT-4 leukemia = test system: MOLT-4 leukemia
# NCI-H226 lung = test system: NCI-H226 lung
# NCI-H23 lung = test system: NCI-H23 lung
# NCI-H460 lung = test system: NCI-H460 lung
# NCI-H522 lung = test system: NCI-H522 lung
# NCI/ADR-RES ovarian = test system: NCI/ADR-RES ovarian
# OVCAR-3 ovarian = test system: OVCAR-3 ovarian
# OVCAR-4 ovarian = test system: OVCAR-4 ovarian
# OVCAR-8 ovarian = test system: OVCAR-8 ovarian
# PC-3 prostate = test system: PC-3 prostate
# RPMI-8226 leukemia = test system: RPMI-8226 leukemia
# RXF 393 renal = test system: RXF 393 renal
# SF-268 CNS = test system: SF-268 CNS
# SF-295 CNS = test system: SF-295 CNS
# SF-539 CNS = test system: SF-539 CNS
# SK-MEL-2 melanoma = test system: SK-MEL-2 melanoma
# SK-MEL-28 melanoma = test system: SK-MEL-28 melanoma
# SK-MEL-5 melanoma = test system: SK-MEL-5 melanoma
# SK-OV-3 ovarian = test system: SK-OV-3 ovarian
# SN12C renal = test system: SN12C renal
# SNB-19 CNS = test system: SNB-19 CNS
# SNB-75 CNS = test system: SNB-75 CNS
# SR leukemia = test system: SR leukemia
# SW-620 colon = test system: SW-620 colon
# T-47D breast = test system: T-47D breast
# TK-10 renal = test system: TK-10 renal
# U251 CNS = test system: U251 CNS
# UACC-257 melanoma = test system: UACC-257 melanoma
# UACC-62 melanoma = test system: UACC-62 melanoma
# UO-31 renal = test system: UO-31 renal
smiles,measurement,setting,value
CN1CCN(c2ccc3nc4c(nc3c2C(F)(F)F)C(=O)c2ncccc2C4=O)CC1,GI50,786-0 renal,2020 nM
same,TGI,786-0 renal,4900 nM
same,GI50,A498 renal,1940 nM
same,TGI,A498 renal,3630 nM
same,GI50,A549 NSCLC,1210 nM
same,TGI,A549 NSCLC,3920 nM
same,GI50,BT-549 breast,1580 nM
same,TGI,BT-549 breast,3070 nM
same,GI50,CAKI-1 renal,1200 nM
same,TGI,CAKI-1 renal,2750 nM
same,GI50,CCRF-CEM leukemia,2440 nM
same,TGI,CCRF-CEM leukemia,7320 nM
same,GI50,COLO 205 colon,1450 nM
same,TGI,COLO 205 colon,3290 nM
same,GI50,DU-145 prostate,1230 nM
same,TGI,DU-145 prostate,2600 nM
same,GI50,EKVX NSCLC,1790 nM
same,TGI,EKVX NSCLC,3870 nM
same,GI50,HCC-2998 colon,1210 nM
same,TGI,HCC-2998 colon,2630 nM
same,GI50,HCT-116 colon,1470 nM
same,TGI,HCT-116 colon,4510 nM
same,GI50,HCT-15 colon,1190 nM
same,TGI,HCT-15 colon,3110 nM
same,GI50,HL-60(TB) leukemia,1600 nM
same,TGI,HL-60(TB) leukemia,5920 nM
same,GI50,HOP-62 NSCLC,1070 nM
same,TGI,HOP-62 NSCLC,2920 nM
same,GI50,HOP-92 NSCLC,2490 nM
same,TGI,HOP-92 NSCLC,5650 nM
same,GI50,HS 578T breast,1910 nM
same,TGI,HS 578T breast,5380 nM
same,GI50,HT29 colon,2320 nM
same,TGI,HT29 colon,6180 nM
same,GI50,IGROV1 ovarian,1410 nM
same,TGI,IGROV1 ovarian,3070 nM
same,GI50,K-562 leukemia,1430 nM
same,TGI,K-562 leukemia,7750 nM
same,GI50,KM12 colon,2280 nM
same,TGI,KM12 colon,10900 nM
same,GI50,LOX IMVI melanoma,1040 nM
same,TGI,LOX IMVI melanoma,2660 nM
same,GI50,M14 melanoma,1320 nM
same,TGI,M14 melanoma,2860 nM
same,GI50,MALME-3M melanoma,1060 nM
same,TGI,MALME-3M melanoma,2240 nM
same,GI50,MCF7 breast,316 nM
same,TGI,MCF7 breast,2090 nM
same,GI50,MDA-MB-231 breast,2540 nM
same,TGI,MDA-MB-231 breast,7000 nM
same,GI50,MDA-MB-435,178 nM
same,TGI,MDA-MB-435,344 nM
same,GI50,MOLT-4 leukemia,2280 nM
same,TGI,MOLT-4 leukemia,5520 nM
same,GI50,NCI-H226 lung,2130 nM
same,TGI,NCI-H226 lung,4740 nM
same,GI50,NCI-H23 lung,365 nM
same,TGI,NCI-H23 lung,1910 nM
same,GI50,NCI-H460 lung,273 nM
same,TGI,NCI-H460 lung,1320 nM
same,GI50,NCI-H522 lung,1160 nM
same,TGI,NCI-H522 lung,3550 nM
same,GI50,NCI/ADR-RES ovarian,2330 nM
same,TGI,NCI/ADR-RES ovarian,6940 nM
same,GI50,OVCAR-3 ovarian,379 nM
same,TGI,OVCAR-3 ovarian,1410 nM
same,GI50,OVCAR-4 ovarian,1070 nM
same,TGI,OVCAR-4 ovarian,2260 nM
same,GI50,OVCAR-8 ovarian,1970 nM
same,TGI,OVCAR-8 ovarian,8960 nM
same,GI50,PC-3 prostate,1440 nM
same,TGI,PC-3 prostate,11500 nM
same,GI50,RPMI-8226 leukemia,2370 nM
same,TGI,RPMI-8226 leukemia,7590 nM
same,GI50,RXF 393 renal,1460 nM
same,TGI,RXF 393 renal,3150 nM
same,GI50,SF-268 CNS,1660 nM
same,TGI,SF-268 CNS,4130 nM
same,GI50,SF-295 CNS,1270 nM
same,TGI,SF-295 CNS,2580 nM
same,GI50,SF-539 CNS,1510 nM
same,TGI,SF-539 CNS,2850 nM
same,GI50,SK-MEL-2 melanoma,2050 nM
same,TGI,SK-MEL-2 melanoma,4340 nM
same,GI50,SK-MEL-28 melanoma,1990 nM
same,TGI,SK-MEL-28 melanoma,4180 nM
same,GI50,SK-MEL-5 melanoma,1430 nM
same,TGI,SK-MEL-5 melanoma,2760 nM
same,GI50,SK-OV-3 ovarian,1980 nM
same,TGI,SK-OV-3 ovarian,4980 nM
same,GI50,SN12C renal,1440 nM
same,TGI,SN12C renal,2910 nM
same,GI50,SNB-19 CNS,1660 nM
same,TGI,SNB-19 CNS,5700 nM
same,GI50,SNB-75 CNS,1110 nM
same,TGI,SNB-75 CNS,2320 nM
same,GI50,SR leukemia,446 nM
same,TGI,SR leukemia,> 100000 nM
same,GI50,SW-620 colon,1420 nM
same,TGI,SW-620 colon,3520 nM
same,GI50,T-47D breast,1960 nM
same,TGI,T-47D breast,4620 nM
same,GI50,TK-10 renal,2210 nM
same,TGI,TK-10 renal,5300 nM
same,GI50,U251 CNS,1380 nM
same,TGI,U251 CNS,4040 nM
same,GI50,UACC-257 melanoma,873 nM
same,TGI,UACC-257 melanoma,2400 nM
same,GI50,UACC-62 melanoma,1050 nM
same,TGI,UACC-62 melanoma,2310 nM
same,GI50,UO-31 renal,1330 nM
same,TGI,UO-31 renal,2840 nM
